According to patent US8921362B2, “6,7-dialkoxy quinazoline derivatives and methods of treating drug resistant and other tumors” (Natco Pharma Limited, priority 2008, dated 2014):

Key:
Assay in all cases: KinomeScan
Type in all cases: binding
Conditions in all cases: read-out: % Ctrl @ 10000 nM
[1] = target: T1, EGFR(G719C) (Homo sapiens, UniProt P00533, G719C)
T1 construct: purchased Ambit Biosciences Corp (KinomeScan); host or cells: T7 phage in E. coli host derived from BL21
In short: (§1)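 Steps: grow kinase-tagged T7 phage in BL21-derived E. coli (MOI ~0.1, 32° C., to lysis); clear lysate; mix with blocked ligand beads and compound; elute; titer by qPCR.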

[2] = target: T2, PRKD2 (Homo sapiens, UniProt Q9BZL6)
T2 construct: host or cells: T7 phage in E. coli host derived from BL21
T2 sequence (Q9BZL6 whole entry): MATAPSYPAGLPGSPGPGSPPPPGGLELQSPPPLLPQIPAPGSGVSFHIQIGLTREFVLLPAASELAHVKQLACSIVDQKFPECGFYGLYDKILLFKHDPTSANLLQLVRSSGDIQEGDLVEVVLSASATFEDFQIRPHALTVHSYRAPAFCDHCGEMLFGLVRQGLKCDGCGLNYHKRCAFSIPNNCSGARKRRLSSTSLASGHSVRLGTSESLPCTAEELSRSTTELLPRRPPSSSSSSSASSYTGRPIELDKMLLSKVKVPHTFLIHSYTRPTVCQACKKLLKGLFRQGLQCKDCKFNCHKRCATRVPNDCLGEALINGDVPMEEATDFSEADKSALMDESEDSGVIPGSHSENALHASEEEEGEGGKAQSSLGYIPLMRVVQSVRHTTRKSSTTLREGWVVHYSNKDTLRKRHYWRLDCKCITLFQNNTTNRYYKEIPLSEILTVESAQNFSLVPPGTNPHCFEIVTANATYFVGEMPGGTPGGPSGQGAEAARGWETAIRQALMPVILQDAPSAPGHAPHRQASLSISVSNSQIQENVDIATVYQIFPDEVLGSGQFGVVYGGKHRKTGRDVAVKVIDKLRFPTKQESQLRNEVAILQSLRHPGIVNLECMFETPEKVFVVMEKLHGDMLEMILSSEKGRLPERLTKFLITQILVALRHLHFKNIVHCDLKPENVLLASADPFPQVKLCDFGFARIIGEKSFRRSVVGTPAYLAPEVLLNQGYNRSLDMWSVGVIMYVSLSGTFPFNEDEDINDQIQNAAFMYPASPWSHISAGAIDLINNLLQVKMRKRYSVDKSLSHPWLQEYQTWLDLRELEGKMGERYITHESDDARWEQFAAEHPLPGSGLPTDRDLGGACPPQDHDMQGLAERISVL
In short: as §1

[3] = target: T3, NEK9 (Homo sapiens, UniProt Q8TD19)
T3 construct: host or cells: T7 phage grown in E. coli host derived from BL21
In short: as §1

[4] = target: T4, DLK (Homo sapiens, UniProt Q12852)
T4 construct: purchased Ambit Biosciences Corp (KinomeScan); host or cells: T7 phage in E. coli host derived from BL21
In short: as §1

[5] = target: T5, BRSK2 (Homo sapiens, UniProt Q8IWQ3)
T5 construct: host or cells: E. coli host derived from BL21
In short: as §1

[6] = target: T6, PIM1 (Homo sapiens, UniProt P11309)
T6 construct: host or cells: T7 phage in E. coli host derived from BL21
In short: as §1

[7] = target: T7, CLK4 (Homo sapiens, UniProt Q9HAZ1)
T7 construct: host or cells: T7 phage in E. coli host derived from BL21
In short: as §1

[8] = target: T8, CLK3 (Homo sapiens, UniProt P49761)
T8 construct: host or cells: T7 phage in E. coli host derived from BL21
In short: as §1

[9] = target: T9, PIM2 (Homo sapiens, UniProt Q9P1W9)
T9 construct: host or cells: T7 phage in E. coli host derived from BL21
In short: as §1

[10] = target: T10, AKT2 (Homo sapiens, UniProt P31751)
T10 construct: host or cells: E. coli (BL21-derived), T7 phage lysate
In short: as §1

[11] = target: T11, STK36 (Homo sapiens, UniProt Q9NRP7)
T11 construct: host or cells: T7 phage grown in E. coli (BL21-derived)
In short: as §1

[12] = target: T12, MAP4K5 (Homo sapiens, UniProt Q9Y4K4)
T12 construct: host or cells: E. coli host derived from the BL21 strain, infected with T7 phage
In short: as §1

[13] = target: T13, FGFR2 (Homo sapiens, UniProt P21802)
T13 construct: host or cells: T7 phage in E. coli host derived from BL21
T13 sequence (P21802 22-821): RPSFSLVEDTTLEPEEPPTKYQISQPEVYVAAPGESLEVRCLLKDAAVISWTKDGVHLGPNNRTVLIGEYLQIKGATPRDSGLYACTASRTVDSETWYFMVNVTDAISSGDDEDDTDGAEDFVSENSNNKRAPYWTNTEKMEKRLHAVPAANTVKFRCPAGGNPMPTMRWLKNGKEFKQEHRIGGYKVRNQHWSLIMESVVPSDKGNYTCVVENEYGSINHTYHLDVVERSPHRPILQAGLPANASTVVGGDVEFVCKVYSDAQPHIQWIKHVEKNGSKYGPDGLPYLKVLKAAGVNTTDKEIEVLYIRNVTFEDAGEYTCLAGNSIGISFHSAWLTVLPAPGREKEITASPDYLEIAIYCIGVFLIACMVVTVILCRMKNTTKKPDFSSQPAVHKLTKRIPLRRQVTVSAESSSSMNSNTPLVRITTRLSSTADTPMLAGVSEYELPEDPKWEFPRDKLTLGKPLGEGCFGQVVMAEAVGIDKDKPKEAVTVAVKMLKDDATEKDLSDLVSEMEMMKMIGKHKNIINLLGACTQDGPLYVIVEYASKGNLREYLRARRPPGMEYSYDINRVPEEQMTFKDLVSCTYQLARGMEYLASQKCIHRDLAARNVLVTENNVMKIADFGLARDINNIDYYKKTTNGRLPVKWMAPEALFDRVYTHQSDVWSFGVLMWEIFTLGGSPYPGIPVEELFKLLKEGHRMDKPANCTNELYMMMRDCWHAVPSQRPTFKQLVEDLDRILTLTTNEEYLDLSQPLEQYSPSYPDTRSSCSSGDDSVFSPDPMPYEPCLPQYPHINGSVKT
In short: as §1

[14] = target: T14, HCK (Homo sapiens, UniProt P08631)
T14 construct: host or cells: T7 phage in E. coli host derived from BL21
In short: as §1

[15] = target: T15, PKN1 (Homo sapiens, UniProt Q16512)
T15 construct: host or cells: T7 phage in E. coli host derived from BL21
In short: as §1

[16] = target: T16, RPS6KA4(Kin.Dom.-1-N-terminal) (Homo sapiens, UniProt O75676)
T16 construct: RPS6KA4(Kin.Dom.-1-N-terminal); host or cells: E. coli host derived from BL21, T7 phage display
T16 sequence (O75676 33-301 limits assumed): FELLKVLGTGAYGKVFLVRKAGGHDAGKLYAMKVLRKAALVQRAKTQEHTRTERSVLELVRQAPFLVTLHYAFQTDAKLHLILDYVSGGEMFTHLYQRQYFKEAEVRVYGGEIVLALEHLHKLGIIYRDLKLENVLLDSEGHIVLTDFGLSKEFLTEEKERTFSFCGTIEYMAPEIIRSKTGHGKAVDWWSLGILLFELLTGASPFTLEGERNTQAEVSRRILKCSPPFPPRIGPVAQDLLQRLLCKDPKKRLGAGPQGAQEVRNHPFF
In short: as §1

[17] = target: T17, GSK3B (Homo sapiens, UniProt P49841)
T17 construct: host or cells: T7 phage in E. coli host derived from BL21
In short: as §1

[18] = target: T18, PHKG1 (Homo sapiens, UniProt Q16816)
T18 construct: host or cells: E. coli host derived from BL21, infected with T7 phage
In short: as §1

[19] = target: T19, EGFR(L858R) (Homo sapiens, UniProt P00533, L858R)
T19 construct: purchased Ambit Biosciences Corp; host or cells: T7 phage in E. coli host derived from BL21
In short: as §1

[20] = target: T20, RET(M918T) (Homo sapiens, UniProt P07949, M918T)
T20 construct: host or cells: E. coli host derived from BL21, T7 phage display
In short: as §1

[21] = target: T21, MEK2 (Homo sapiens, UniProt P36507)
T21 construct: host or cells: E. coli host derived from the BL21 strain, infected with T7 phage
T21 sequence (P36507 whole entry): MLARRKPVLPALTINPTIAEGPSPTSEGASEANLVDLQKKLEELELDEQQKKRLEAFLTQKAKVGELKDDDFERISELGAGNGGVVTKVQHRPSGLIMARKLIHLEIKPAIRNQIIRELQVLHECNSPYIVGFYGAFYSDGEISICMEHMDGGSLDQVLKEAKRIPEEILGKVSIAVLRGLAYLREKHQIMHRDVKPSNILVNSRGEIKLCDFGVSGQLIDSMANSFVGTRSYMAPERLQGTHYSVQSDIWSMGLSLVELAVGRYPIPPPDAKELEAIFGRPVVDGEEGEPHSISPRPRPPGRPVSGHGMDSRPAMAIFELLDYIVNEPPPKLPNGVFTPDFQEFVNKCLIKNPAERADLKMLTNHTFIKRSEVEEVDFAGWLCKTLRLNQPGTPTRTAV
In short: as §1

[22] = target: T22, LIMK2 (Homo sapiens, UniProt P53671)
T22 construct: host or cells: T7 phage grown in E. coli host derived from BL21
In short: as §1

[23] = target: T23, ERK8 (Homo sapiens, UniProt Q8TD08)
T23 construct: purchased Ambit Biosciences Corp; host or cells: T7 phage in E. coli host derived from BL21
In short: as §1

[24] = target: T24, MST1 (Homo sapiens, UniProt Q13043)
T24 construct: host or cells: T7 phage grown in E. coli host derived from BL21
In short: as §1

[25] = target: T25, PRKR (Homo sapiens, UniProt P19525)
T25 construct: host or cells: T7 phage in E. coli host derived from BL21
In short: as §1

[26] = target: T26, EGFR(L747-S752del, P753S) (Homo sapiens, UniProt P00533, DEL747-752/P753S)
T26 construct: purchased Ambit Biosciences Corp (KinomeScan); host or cells: T7 phage in E. coli host derived from BL21
T26 sequence (P00533 with tags, fused parts or gaps DEL747-752/P753S): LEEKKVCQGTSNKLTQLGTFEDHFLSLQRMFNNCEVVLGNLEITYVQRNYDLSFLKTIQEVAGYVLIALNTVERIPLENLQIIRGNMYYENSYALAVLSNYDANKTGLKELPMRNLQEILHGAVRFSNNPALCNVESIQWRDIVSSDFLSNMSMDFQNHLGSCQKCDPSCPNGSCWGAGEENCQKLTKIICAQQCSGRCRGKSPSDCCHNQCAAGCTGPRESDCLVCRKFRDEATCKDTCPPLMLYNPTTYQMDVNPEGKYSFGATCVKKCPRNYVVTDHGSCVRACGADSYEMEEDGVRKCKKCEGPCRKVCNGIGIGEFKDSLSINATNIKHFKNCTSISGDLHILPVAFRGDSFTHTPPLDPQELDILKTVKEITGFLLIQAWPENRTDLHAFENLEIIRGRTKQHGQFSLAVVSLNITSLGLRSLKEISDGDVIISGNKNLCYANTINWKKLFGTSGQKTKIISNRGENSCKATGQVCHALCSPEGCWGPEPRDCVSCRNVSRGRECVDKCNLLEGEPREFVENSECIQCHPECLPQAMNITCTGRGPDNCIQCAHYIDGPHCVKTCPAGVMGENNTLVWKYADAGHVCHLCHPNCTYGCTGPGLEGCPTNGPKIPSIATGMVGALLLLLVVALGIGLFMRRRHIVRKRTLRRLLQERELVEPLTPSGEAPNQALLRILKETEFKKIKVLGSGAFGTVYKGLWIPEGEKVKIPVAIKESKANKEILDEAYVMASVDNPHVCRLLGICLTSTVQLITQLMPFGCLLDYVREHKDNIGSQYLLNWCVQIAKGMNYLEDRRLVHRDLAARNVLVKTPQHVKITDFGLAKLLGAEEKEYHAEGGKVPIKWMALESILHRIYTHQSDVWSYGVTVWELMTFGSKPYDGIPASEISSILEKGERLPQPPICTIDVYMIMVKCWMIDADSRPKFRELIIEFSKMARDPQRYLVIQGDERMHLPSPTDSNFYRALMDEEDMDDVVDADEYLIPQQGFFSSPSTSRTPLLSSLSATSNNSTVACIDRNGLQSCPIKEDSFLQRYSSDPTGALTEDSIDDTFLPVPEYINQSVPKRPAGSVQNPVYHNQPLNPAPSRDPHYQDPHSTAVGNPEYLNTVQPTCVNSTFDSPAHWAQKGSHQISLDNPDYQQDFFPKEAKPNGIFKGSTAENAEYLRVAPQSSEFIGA
In short: as §1

[27] = target: T27, KIT (Homo sapiens, UniProt P10721)
T27 construct: host or cells: T7 phage grown in E. coli host derived from BL21
In short: as §1

[28] = target: T28, RPS6KA1(Kin.Dom.-2-C-terminal) (Homo sapiens, UniProt Q15418)
T28 construct: RPS6KA1(Kin.Dom.-2-C-terminal); host or cells: E. coli host derived from BL21, T7 phage display
T28 sequence (Q15418 418-675 limits assumed): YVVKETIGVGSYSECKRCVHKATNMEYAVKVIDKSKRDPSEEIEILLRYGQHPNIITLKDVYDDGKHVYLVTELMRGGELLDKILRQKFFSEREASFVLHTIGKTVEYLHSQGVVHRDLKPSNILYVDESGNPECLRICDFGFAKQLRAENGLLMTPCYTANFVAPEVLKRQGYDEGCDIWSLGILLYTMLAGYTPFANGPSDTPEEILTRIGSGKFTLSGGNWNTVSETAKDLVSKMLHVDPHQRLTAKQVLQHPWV
In short: as §1

[29] = target: T29, FER (Homo sapiens, UniProt P16591)
T29 construct: host or cells: T7 phage in E. coli host derived from BL21
In short: as §1

[30] = target: T30, ACVR2A (Homo sapiens, UniProt P27037)
T30 construct: host or cells: E. coli (BL21-derived), T7 phage lysate
In short: as §1

[31] = target: T31, CHEK2 (Homo sapiens, UniProt O96017)
T31 construct: host or cells: T7 phage in E. coli host derived from BL21
In short: as §1

[32] = target: T32, AKT3 (Homo sapiens, UniProt Q9Y243)
T32 construct: host or cells: E. coli (BL21-derived), T7 phage lysate
In short: as §1

T1 sequence (P00533 25-1210 G719C): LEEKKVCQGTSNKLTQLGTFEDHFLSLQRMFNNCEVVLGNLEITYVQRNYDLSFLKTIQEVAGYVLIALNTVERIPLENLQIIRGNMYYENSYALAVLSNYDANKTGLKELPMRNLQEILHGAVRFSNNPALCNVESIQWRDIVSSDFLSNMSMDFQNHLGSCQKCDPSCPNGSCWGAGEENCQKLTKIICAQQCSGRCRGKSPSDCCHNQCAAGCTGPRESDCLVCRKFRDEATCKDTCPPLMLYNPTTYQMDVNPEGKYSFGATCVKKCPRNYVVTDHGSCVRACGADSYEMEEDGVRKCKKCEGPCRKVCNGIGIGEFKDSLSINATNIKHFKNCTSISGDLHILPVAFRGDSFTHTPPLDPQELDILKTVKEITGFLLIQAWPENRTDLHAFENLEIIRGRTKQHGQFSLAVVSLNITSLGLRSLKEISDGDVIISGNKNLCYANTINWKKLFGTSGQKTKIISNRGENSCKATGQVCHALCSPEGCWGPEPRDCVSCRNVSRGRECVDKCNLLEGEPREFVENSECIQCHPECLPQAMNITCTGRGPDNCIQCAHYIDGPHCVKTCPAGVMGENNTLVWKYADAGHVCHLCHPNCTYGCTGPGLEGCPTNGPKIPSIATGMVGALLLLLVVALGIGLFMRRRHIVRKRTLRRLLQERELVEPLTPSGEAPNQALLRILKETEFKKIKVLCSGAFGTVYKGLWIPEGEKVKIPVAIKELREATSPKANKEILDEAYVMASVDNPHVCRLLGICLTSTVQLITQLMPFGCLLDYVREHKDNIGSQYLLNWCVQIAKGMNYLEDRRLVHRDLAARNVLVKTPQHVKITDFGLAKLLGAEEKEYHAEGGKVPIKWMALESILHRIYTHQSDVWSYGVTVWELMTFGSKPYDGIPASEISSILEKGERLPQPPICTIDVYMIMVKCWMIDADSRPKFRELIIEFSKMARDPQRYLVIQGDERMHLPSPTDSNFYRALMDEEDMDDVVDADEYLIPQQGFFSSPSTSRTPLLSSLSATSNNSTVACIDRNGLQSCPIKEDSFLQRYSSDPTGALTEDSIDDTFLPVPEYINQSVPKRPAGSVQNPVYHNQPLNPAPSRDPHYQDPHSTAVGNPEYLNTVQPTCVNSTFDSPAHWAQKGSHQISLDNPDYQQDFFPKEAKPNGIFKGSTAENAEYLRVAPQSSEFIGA

Compound: C#Cc1cccc(Nc2ncnc3cc(OC)c(OCCCN4CCOCC4)cc23)c1 [NRC-2694, N-(3-ethynylphenyl)-7-methoxy-6-[3-(4-morpholinyl)propoxy]-4-quinazolinamine]
- remaining binding at 10 µM [1]: 0%
- remaining binding at 10 µM [2]: 0.4%
- remaining binding at 10 µM [3]: 85%
- remaining binding at 10 µM [4]: 92%
- remaining binding at 10 µM [5]: 33%
- remaining binding at 10 µM [6]: 39%
- remaining binding at 10 µM [7]: 17%
- remaining binding at 10 µM [8]: 45%
- remaining binding at 10 µM [9]: 83%
- remaining binding at 10 µM [10]: 100%
- remaining binding at 10 µM [11]: 4.6%
- remaining binding at 10 µM [12]: 23%
- remaining binding at 10 µM [13]: 100%
- remaining binding at 10 µM [14]: 17%
- remaining binding at 10 µM [15]: 50%
- remaining binding at 10 µM [16]: 84%
- remaining binding at 10 µM [17]: 100%
- remaining binding at 10 µM [18]: 50%
- remaining binding at 10 µM [19]: 0%
- remaining binding at 10 µM [20]: 37%
- remaining binding at 10 µM [21]: 44%
- remaining binding at 10 µM [22]: 100%
- remaining binding at 10 µM [23]: 62%
- remaining binding at 10 µM [24]: 100%
- remaining binding at 10 µM [25]: 51%
- remaining binding at 10 µM [26]: 0.1%
- remaining binding at 10 µM [27]: 26%
- remaining binding at 10 µM [28]: 49%
- remaining binding at 10 µM [29]: 94%
- remaining binding at 10 µM [30]: 92%
- remaining binding at 10 µM [31]: 38%
- remaining binding at 10 µM [32]: 66%
